Measured values from patent US11053204B2, “Pyrimidinyloxy benzene derivatives as herbicides” (FMC Corporation, priority 2015, dated 2021).

Assays:
Assay type in all cases: in vivo
[1] = tested on: ducksalad (Heteranthera limosa); assay: Test B flooded paddy test, plant response rating; conditions: 250 g ai/ha; Flood; scale of 0 to 100 where 0 is no effect and 100 is complete control; 13 to 15 days
Method in brief: (§1)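 Pots were flooded to 3 cm above the soil surface at treatment, compound applied directly to the paddy water, and that depth held throughout. Plants were kept in a greenhouse for 13 to 15 days, then visually rated against untreated controls.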

rice (Oryza sativa) = assay: Test B flooded paddy test, plant response rating; conditions: 250 g ai/ha; Flood; scale of 0 to 100 where 0 is no effect and 100 is complete control; 13 to 15 days
Method in brief: as §1

[2] = tested on: sedge, umbrella (small-flower umbrella sedge, Cyperus difformis); assay: Test B flooded paddy test, plant response rating; conditions: 250 g ai/ha; Flood; scale of 0 to 100 where 0 is no effect and 100 is complete control; 13 to 15 days
Method in brief: as §1

[3] = tested on: blackgrass (Alopecurus myosuroides); assay: Test C preemergence, plant response rating; conditions: Preemergence
Method in brief: (§2)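 Preemergence: seeds sown in loam–sand blend or silt loam and sprayed with test chemicals in a non-phytotoxic surfactant-containing solvent. Postemergence: potted plants at 2–18 cm (1–4-leaf stage) sprayed with the same formulation. After 13–15 d in greenhouse, visual rating versus controls on 0 (no effect) to 100 (complete control) scale.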

corn (Zea mays) = assay: Test C preemergence, plant response rating; conditions: Preemergence
Method in brief: as §2

[4] = tested on: crabgrass, large (large crabgrass, Digitaria sanguinalis); assay: Test C preemergence, plant response rating; conditions: Preemergence
Method in brief: as §2

[5] = tested on: foxtail, giant (giant foxtail, Setaria faberii); assay: Test C preemergence, plant response rating; conditions: Preemergence
Method in brief: as §2

[6] = tested on: lambsquarters (Chenopodium album); assay: Test C preemergence, plant response rating; conditions: Preemergence
Method in brief: as §2

[7] = tested on: morningglory (Ipomoea coccinea); assay: Test C preemergence, plant response rating; conditions: Preemergence
Method in brief: as §2

[8] = tested on: nutsedge, yellow (yellow nutsedge, Cyperus esculentus); assay: Test C preemergence, plant response rating; conditions: Preemergence
Method in brief: as §2

[9] = tested on: oilseed rape (Brassica napus); assay: Test C preemergence, plant response rating; conditions: Preemergence
Method in brief: as §2

[10] = tested on: ragweed (common ragweed, Ambrosia elatior); assay: Test C preemergence, plant response rating; conditions: Preemergence
Method in brief: as §2

[11] = tested on: ryegrass, Italian (Italian ryegrass, Lolium multiflorum); assay: Test C preemergence, plant response rating; conditions: Preemergence
Method in brief: as §2

soybean (Glycine max) = assay: Test C preemergence, plant response rating; conditions: Preemergence
Method in brief: as §2

[12] = tested on: velvetleaf (Abutilon theophrasti); assay: Test C preemergence, plant response rating; conditions: Preemergence
Method in brief: as §2

[13] = tested on: waterhemp (common waterhemp, Amaranthus rudis); assay: Test C preemergence, plant response rating; conditions: Preemergence
Method in brief: as §2

[14] = tested on: wheat (winter wheat, Triticum aestivum); assay: Test C preemergence, plant response rating; conditions: Preemergence
Method in brief: as §2

[15] = tested on: surinam grass (Brachiaria decumbens); assay: Test C preemergence, plant response rating
[16] = tested on: wild poinsettia (Euphorbia heterophylla); assay: Test C preemergence, plant response rating
[17] = tested on: oat, wild (wild oat Avena fatua); assay: Test C preemergence, plant response rating

Structure (SMILES): CCCCC(=O)c1c(Br)cccc1Oc1ncc(Cl)cn1 [Compound 79]
- Plant response rating, Ducksalad [1]: 90
- Plant response rating, Rice (rice (Oryza sativa)): 45
- Plant response rating, Sedge, Umbrella [2]: 100
- Plant response rating, Blackgrass ([3]; 62 g ai/ha, scale of 0 to 100): 75
- Plant response rating, Blackgrass ([3]; 125 g ai/ha, scale of 0 to 100): 90
- Plant response rating, Blackgrass ([3]; 16 g ai/ha, scale 0 to 100): 5
- Plant response rating, Blackgrass ([3]; 31 g ai/ha, scale 0 to 100): 10
- Plant response rating, Corn (corn (Zea mays); 62 g ai/ha, scale of 0 to 100): 5
- Plant response rating, Corn (corn (Zea mays); 125 g ai/ha, scale of 0 to 100): 30
- Plant response rating, Corn (corn (Zea mays); 16 g ai/ha, scale 0 to 100): 0
- Plant response rating, Corn (corn (Zea mays); 31 g ai/ha, scale 0 to 100): 0
- Plant response rating, Crabgrass, Large ([4]; 62 g ai/ha, scale of 0 to 100): 100
- Plant response rating, Crabgrass, Large ([4]; 125 g ai/ha, scale of 0 to 100): 98
- Plant response rating, Crabgrass, Large ([4]; 16 g ai/ha, scale 0 to 100): 65
- Plant response rating, Crabgrass, Large ([4]; 31 g ai/ha, scale 0 to 100): 98
- Plant response rating, Foxtail, Giant ([5]; 62 g ai/ha, scale of 0 to 100): 80
- Plant response rating, Foxtail, Giant ([5]; 125 g ai/ha, scale of 0 to 100): 98
- Plant response rating, Foxtail, Giant ([5]; 16 g ai/ha, scale 0 to 100): 40
- Plant response rating, Foxtail, Giant ([5]; 31 g ai/ha, scale 0 to 100): 70
- Plant response rating, Lambsquarters ([6]; 125 g ai/ha, scale of 0 to 100): 85
- Plant response rating, Lambsquarters ([6]; 16 g ai/ha, scale 0 to 100): 0
- Plant response rating, Lambsquarters ([6]; 31 g ai/ha, scale 0 to 100): 10
- Plant response rating, Lambsquarters ([6]; 62 g ai/ha, scale 0 to 100): 70
- Plant response rating, Morningglory ([7]; 125 g ai/ha, scale of 0 to 100): 60
- Plant response rating, Morningglory ([7]; 16 g ai/ha, scale 0 to 100): 20
- Plant response rating, Morningglory ([7]; 31 g ai/ha, scale 0 to 100): 10
- Plant response rating, Morningglory ([7]; 62 g ai/ha, scale 0 to 100): 10
- Plant response rating, Nutsedge, Yellow ([8]; 125 g ai/ha, scale of 0 to 100): 0
- Plant response rating, Nutsedge, Yellow ([8]; 16 g ai/ha, scale 0 to 100): 0
- Plant response rating, Nutsedge, Yellow ([8]; 31 g ai/ha, scale 0 to 100): 0
- Plant response rating, Nutsedge, Yellow ([8]; 62 g ai/ha, scale 0 to 100): 0
- Plant response rating, Oilseed Rape ([9]; 125 g ai/ha, scale of 0 to 100): 95
- Plant response rating, Oilseed Rape ([9]; 16 g ai/ha, scale 0 to 100): 0
- Plant response rating, Oilseed Rape ([9]; 31 g ai/ha, scale 0 to 100): 0
- Plant response rating, Oilseed Rape ([9]; 62 g ai/ha, scale 0 to 100): 70
- Plant response rating, Ragweed ([10]; 125 g ai/ha, scale of 0 to 100): 30
- Plant response rating, Ragweed ([10]; 16 g ai/ha, scale 0 to 100): 0
- Plant response rating, Ragweed ([10]; 31 g ai/ha, scale 0 to 100): 0
- Plant response rating, Ragweed ([10]; 62 g ai/ha, scale 0 to 100): 20
- Plant response rating, Ryegrass, Italian ([11]; 125 g ai/ha, scale of 0 to 100): 35
- Plant response rating, Ryegrass, Italian ([11]; 16 g ai/ha, scale 0 to 100): 0
- Plant response rating, Ryegrass, Italian ([11]; 31 g ai/ha, scale 0 to 100): 10
- Plant response rating, Ryegrass, Italian ([11]; 62 g ai/ha, scale 0 to 100): 30
- Plant response rating, Soybean (soybean (Glycine max); 125 g ai/ha, scale of 0 to 100): 5
- Plant response rating, Soybean (soybean (Glycine max); 16 g ai/ha, scale 0 to 100): 0
- Plant response rating, Soybean (soybean (Glycine max); 31 g ai/ha, scale 0 to 100): 0
- Plant response rating, Soybean (soybean (Glycine max); 62 g ai/ha, scale 0 to 100): 5
- Plant response rating, Velvetleaf ([12]; 125 g ai/ha, scale of 0 to 100): 75
- Plant response rating, Velvetleaf ([12]; 16 g ai/ha, scale 0 to 100): 10
- Plant response rating, Velvetleaf ([12]; 31 g ai/ha, scale 0 to 100): 5
- Plant response rating, Velvetleaf ([12]; 62 g ai/ha, scale 0 to 100): 20
- Plant response rating, Waterhemp ([13]; 125 g ai/ha, scale of 0 to 100): 100
- Plant response rating, Waterhemp ([13]; 16 g ai/ha, scale 0 to 100): 100
- Plant response rating, Waterhemp ([13]; 31 g ai/ha, scale 0 to 100): 98
- Plant response rating, Waterhemp ([13]; 62 g ai/ha, scale 0 to 100): 95
- Plant response rating, Wheat ([14]; 125 g ai/ha, scale of 0 to 100): 15
- Plant response rating, Wheat ([14]; 16 g ai/ha, scale 0 to 100): 0
- Plant response rating, Wheat ([14]; 31 g ai/ha, scale 0 to 100): 5
- Plant response rating, Wheat ([14]; 62 g ai/ha, scale 0 to 100): 5
- Plant response rating, Surinam Grass ([15]; 16 g ai/ha, scale 0 to 100): 5
- Plant response rating, Surinam Grass ([15]; 31 g ai/ha, scale 0 to 100): 30
- Plant response rating, Surinam Grass ([15]; 62 g ai/ha, scale 0 to 100): 50
- Plant response rating, Surinam Grass ([15]; 125 g ai/ha, scale of 0 to 100): 85
- Plant response rating, Poinsettia, Wild ([16]; 16 g ai/ha, scale 0 to 100): 0
- Plant response rating, Poinsettia, Wild ([16]; 31 g ai/ha, scale 0 to 100): 0
- Plant response rating, Poinsettia, Wild ([16]; 62 g ai/ha, scale 0 to 100): 10
- Plant response rating, Poinsettia, Wild ([16]; 125 g ai/ha, scale of 0 to 100): 40
- Plant response rating, Oat, Wild ([17]; 16 g ai/ha, scale 0 to 100): 0
- Plant response rating, Oat, Wild ([17]; 31 g ai/ha, scale 0 to 100): 0
- Plant response rating, Oat, Wild ([17]; 62 g ai/ha, scale 0 to 100): 5
- Plant response rating, Oat, Wild ([17]; 125 g ai/ha, scale of 0 to 100): 40
